Results: US20260022143A1, “Cyclic Peptide Inhibitors of IL-23” (JANSSEN PHARMACEUTICA NV, priority 2022, published 2026)
Positions of bridges follow the written chain, without caps; N, C: chain ends. Non-standard residues stand in square brackets, D forms with d. Residues, ends and D or L forms follow the SMILES beside them. *: point of attachment. Me3N+(CH2)2O(CH2)2O(CH2)2CO = C[N+](C)(C)CCOCCOCCC(=O)*; Phe(4-guanidino) = N=C(N)Nc1ccc(C[C@H](N)C(=O)O)cc1; Trp(7-Me) = Cc1cccc2c(C[C@H](N)C(=O)O)c[nH]c12; Dab(NMeAc) = CC(=O)N(C)CC[C@H](N)C(=O)O; 2Nal = N[C@@H](Cc1ccc2ccccc2c1)C(=O)O; AEF = NCCOc1ccc(C[C@H](N)C(=O)O)cc1; 3Pal = N[C@@H](Cc1cccnc1)C(=O)O; Lys(Me) = CNCCCC[C@H](N)C(=O)O; Pen = CC(C)(S)[C@H](N)C(=O)O; X44 = c1cc[n+](CCOCCOCC*)cc1; Thp = NC1(C(=O)O)CCOCC1; X3 = C[N+](C)(C)CCCCC*; Sar = CNCC(=O)O

Columns and labels:
IL-23R = biological target: T1, IL-23R (Homo sapiens, UniProt Q5VWK5); assay: IL23R Reporter Assay; assay type: cell-based; conditions: HEK293 cells containing IL-23R, IL-12RP1 and STAT-inducible firefly luciferase reporter; 10 ng/mL IL-23 (EC90); 5 h at 37° C.; read-out: IL23R Reporter Assay
T1 construct: host or cells: HEK293
T1 sequence (Q5VWK5 24-629): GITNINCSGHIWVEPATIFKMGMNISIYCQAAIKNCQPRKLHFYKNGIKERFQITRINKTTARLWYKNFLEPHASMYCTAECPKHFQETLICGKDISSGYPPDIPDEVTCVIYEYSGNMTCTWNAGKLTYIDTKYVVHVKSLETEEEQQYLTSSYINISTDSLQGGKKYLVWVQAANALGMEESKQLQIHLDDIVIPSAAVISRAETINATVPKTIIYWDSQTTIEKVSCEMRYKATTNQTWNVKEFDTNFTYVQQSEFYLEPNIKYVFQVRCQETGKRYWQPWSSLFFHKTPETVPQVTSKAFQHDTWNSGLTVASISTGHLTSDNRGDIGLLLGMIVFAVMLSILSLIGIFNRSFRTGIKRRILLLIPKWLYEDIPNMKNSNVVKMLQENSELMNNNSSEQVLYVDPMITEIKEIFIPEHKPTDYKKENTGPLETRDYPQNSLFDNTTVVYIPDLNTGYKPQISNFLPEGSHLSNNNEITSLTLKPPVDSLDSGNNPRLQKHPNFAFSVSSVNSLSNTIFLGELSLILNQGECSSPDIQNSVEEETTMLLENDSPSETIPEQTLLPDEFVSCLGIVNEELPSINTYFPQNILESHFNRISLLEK

[1] = Exposed Polar Surface Area (EPSA); assay type: physicochemical; conditions: SFC on Chirex 3014 column; sample 1 mM DMSO stock; read-out: EPSA
Method in brief: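 Compounds, as 1 mM DMSO stock, were injected in duplicate onto an SFC Chirex 3014 column at 35 °C and eluted with a CO2/methanol (20 mM ammonium formate) gradient. EPSA values in Å^2 were derived from retention times using a linear fit to eight calibration standards, reinjected every 20 compounds.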

| IC50 (IL-23R) [nM] | EPSA [1] [A^2] | SMILES |
| --- | --- | --- |
| 1.8 | 153 | CC(=O)N(C)CCCC[C@@H]1NC(=O)[C@H](Cc2c[nH]c3c(C)cccc23)NC(=O)[C@H]([C@@H](C)O)NC(=O)[C@H](CC(=O)N(C)C)NC(=O)[C@@H](NC(=O)CCOCCOCC[N+](C)(C)C)C(C)(C)SSC(C)(C)[C@@H](C(=O)N[C@@H](Cc2ccc(OCCOCCOCC[n+]3ccccc3)cc2)C(=O)N[C@@H](Cc2ccc3ccccc3c2)C(=O)NC2(C(=O)N[C@@H](CCCCN(C)C(C)=O)C(=O)N[C@@H](CC(N)=O)C(=O)N[C@@H](Cc3cccnc3)C(=O)N(C)CC(=O)N(C)C)CCOCC2)NC1=O [compound 297, cPEG3aCO-Pen(3)-N(N(Me)2)-T-7MeW-K(NMeAc)-Pen(3)-NPyPEG3F-2Nal-THP-K(NMeAc)-N-3Pya-Sar-CON(Me)2] ({Me3N+(CH2)2O(CH2)2O(CH2)2CO}-[Pen]D(NMe2)T[Trp(7-Me)][Lys(Me)](Ac)[Pen]Y(X44)[2Nal][Thp][Lys(Me)](Ac)N[3Pal][Sar]-NMe2; disulfide 1-6 (inferred)) |
| 2.1 | 153 | CNC(=O)C[C@@H]1NC(=O)[C@@H](NC(=O)CCOCCOCC[N+](C)(C)C)C(C)(C)SSC(C)(C)[C@@H](C(=O)N[C@@H](Cc2ccc(OCCCCC[N+](C)(C)C)cc2)C(=O)N[C@@H](Cc2ccc3ccccc3c2)C(=O)NC2(C(=O)N[C@@H](CCCCN(C)C(C)=O)C(=O)N[C@@H](CC(N)=O)C(=O)N[C@@H](Cc3cccnc3)C(=O)N(C)CC(=O)N(C)C)CCOCC2)NC(=O)[C@H](CCCCN(C)C(C)=O)NC(=O)[C@H](Cc2c[nH]c3c(C)cccc23)NC(=O)[C@H]([C@@H](C)O)NC1=O [compound 300, cPEG3aCO-Pen(3)-N(N(Me))-T-7MeW-K(NMeAc)-Pen(3)-TMAPF-2Nal-THP-K(NMeAc)-N-3Pya-Sar-CON(Me)2] ({Me3N+(CH2)2O(CH2)2O(CH2)2CO}-[Pen]D(NHMe)T[Trp(7-Me)][Lys(Me)](Ac)[Pen]Y(X3)[2Nal][Thp][Lys(Me)](Ac)N[3Pal][Sar]-NMe2; disulfide 1-6) |
| 0.73 | 153 | CC(=O)N(C)CCCC[C@@H]1NC(=O)[C@H](Cc2c[nH]c3c(C)cccc23)NC(=O)[C@H]([C@@H](C)O)NC(=O)[C@H](CC(=O)N(C)C)NC(=O)[C@@H](NC(=O)CCOCCOCC[N+](C)(C)C)C(C)(C)SSC(C)(C)[C@@H](C(=O)N[C@@H](Cc2ccc(OCCCCC[N+](C)(C)C)cc2)C(=O)N[C@@H](Cc2ccc3ccccc3c2)C(=O)NC2(C(=O)N[C@@H](CCN(C)C(C)=O)C(=O)N[C@@H](CC(N)=O)C(=O)N[C@@H](Cc3cccnc3)C(=O)N(C)CC(=O)N(C)C)CCOCC2)NC1=O [compound 301, cPEG3aCO-Pen(3)-N(N(Me)2)-T-7MeW-K(NMeAC)-Pen(3)-TMAPF-2Nal-THP-Dab(NMeAc)-N-3Pya-Sar-CON(Me)2] ({Me3N+(CH2)2O(CH2)2O(CH2)2CO}-[Pen]D(NMe2)T[Trp(7-Me)][Lys(Me)](Ac)[Pen]Y(X3)[2Nal][Thp][Dab(NMeAc)]N[3Pal][Sar]-NMe2; disulfide 1-6) |
| 1.4 | 164 | CC(=O)N(C)CCCC[C@@H]1NC(=O)[C@H](Cc2c[nH]c3c(C)cccc23)NC(=O)[C@H]([C@@H](C)O)NC(=O)[C@H](CC(=O)N(C)C)NC(=O)[C@@H](NC(=O)CCOCCOCC[N+](C)(C)C)C(C)(C)SSC(C)(C)[C@@H](C(=O)N[C@@H](Cc2ccc(NC(=N)N)cc2)C(=O)N[C@@H](Cc2ccc3ccccc3c2)C(=O)NC2(C(=O)N[C@@H](CCCCN(C)C(C)=O)C(=O)N[C@@H](CC(N)=O)C(=O)N[C@@H](Cc3cccnc3)C(=O)N(C)CC(=O)N(C)C)CCOCC2)NC1=O [compound 304, cPEG3aCO-Pen(3)-N(N(Me)2)-T-7MeW-K(NMeAc)-Pen(3)-F(4G)-2Nal-THP-K(NMeAc)-N-3Pya-Sar-CON(Me)2] ({Me3N+(CH2)2O(CH2)2O(CH2)2CO}-[Pen]D(NMe2)T[Trp(7-Me)][Lys(Me)](Ac)[Pen][Phe(4-guanidino)][2Nal][Thp][Lys(Me)](Ac)N[3Pal][Sar]-NMe2; disulfide 1-6) |
| 2 | 154 | CC(=O)NCCCC[C@@H]1NC(=O)[C@H](Cc2c[nH]c3c(C)cccc23)NC(=O)[C@H]([C@@H](C)O)NC(=O)[C@H](CC(=O)N(C)C)NC(=O)[C@@H](NC(=O)CCOCCOCC[N+](C)(C)C)C(C)(C)SSC(C)(C)[C@@H](C(=O)N[C@@H](Cc2ccc(OCCCCC[N+](C)(C)C)cc2)C(=O)N[C@@H](Cc2ccc3ccccc3c2)C(=O)NC2(C(=O)N[C@@H](CCN(C)C(C)=O)C(=O)N[C@@H](CC(N)=O)C(=O)N[C@@H](Cc3cccnc3)C(=O)N(C)CC(=O)N(C)C)CCOCC2)NC1=O [compound 308, cPEG3aCO-Pen(3)-N(N(Me)2)-T-7MeW-K(Ac)-Pen(3)-TMAPF-2Nal-THP-Dab(NMeAc)-N-3Pya-Sar-CON(Me)2] ({Me3N+(CH2)2O(CH2)2O(CH2)2CO}-[Pen]D(NMe2)T[Trp(7-Me)]K(Ac)[Pen]Y(X3)[2Nal][Thp][Dab(NMeAc)]N[3Pal][Sar]-NMe2; disulfide 1-6) |
| 0.95 | 162 | CC(=O)N(C)CCCC[C@@H]1NC(=O)[C@H](Cc2c[nH]c3c(C)cccc23)NC(=O)[C@H]([C@@H](C)O)NC(=O)[C@H](CC(=O)N(C)C)NC(=O)[C@@H](NC(=O)CCOCCOCC[N+](C)(C)C)C(C)(C)SSC(C)(C)[C@@H](C(=O)N[C@@H](Cc2ccc(OCCN)cc2)C(=O)N[C@@H](Cc2ccc3ccccc3c2)C(=O)NC2(C(=O)N[C@@H](CCCCN(C)C(C)=O)C(=O)N[C@@H](CC(N)=O)C(=O)N[C@@H](Cc3cccnc3)C(=O)N(C)CC(=O)N(C)C)CCOCC2)NC1=O [compound 320, cPEG3aCO-Pen(3)-N(N(Me)2)-T-7MeW-K(NMeAc)-Pen(3)-AEF-2Nal-THP-K(NMeAc)-N-3Pya-Sar-CON(Me)2] ({Me3N+(CH2)2O(CH2)2O(CH2)2CO}-[Pen]D(NMe2)T[Trp(7-Me)][Lys(Me)](Ac)[Pen][AEF][2Nal][Thp][Lys(Me)](Ac)N[3Pal][Sar]-NMe2; disulfide 1-6) |
| 0.85 | 157 | CC(=O)N(C)CCCC[C@@H]1NC(=O)[C@H](Cc2c[nH]c3c(C)cccc23)NC(=O)[C@H]([C@@H](C)O)NC(=O)[C@H](CC(=O)N(C)C)NC(=O)[C@@H](NC(=O)CCOCCOCC[N+](C)(C)C)C(C)(C)SSC(C)(C)[C@@H](C(=O)N[C@@H](Cc2ccc(OCCCCC[N+](C)(C)C)cc2)C(=O)N[C@@H](Cc2ccc3ccccc3c2)C(=O)NC2(C(=O)N[C@@H](CCCCN(C)C(C)=O)C(=O)N[C@@H](CC(N)=O)C(=O)N[C@@H](Cc3cccnc3)C(=O)N(C)CC(N)=O)CCOCC2)NC1=O [compound 326, cPEG3aCO-Pen(3)-N(N(Me)2)-T-7MeW-K(NMeAc)-Pen(3)-TMAPF-2Nal-THP-K(NMeAc)-N-3Pya-Sar-CONH2] ({Me3N+(CH2)2O(CH2)2O(CH2)2CO}-[Pen]D(NMe2)T[Trp(7-Me)][Lys(Me)](Ac)[Pen]Y(X3)[2Nal][Thp][Lys(Me)](Ac)N[3Pal][Sar]-NH2; disulfide 1-6) |
